In patent US11446287B2, “Compounds and methods for EP300 or CBP modulation and indications therefor” (Opna Immuno-Oncology SA, priority 2019, dated 2022) one finds IC50 data, which are given here for 28 molecules.

The target in the test is T1, Recombinant human EP300 containing the bromodomain (EP300-BD (1040-1161)) (Homo sapiens, UniProt Q09472).
T1 construct: Recombinant human EP300 bromodomain (EP300-BD (1040-1161)); made in house; host or cells: E. coli BL21-CodonPlus (DE3), modified pET vector
T1 sequence (Q09472 1040-1161): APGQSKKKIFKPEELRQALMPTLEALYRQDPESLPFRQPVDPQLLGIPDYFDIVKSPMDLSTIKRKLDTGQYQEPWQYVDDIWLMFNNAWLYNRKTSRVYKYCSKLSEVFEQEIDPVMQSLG
The test can be described thus: EP300 Alphascreen binding assay. A digest of the protocol: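 Displacement of a biotinylated acetyl-K56 histone H3 peptide from the N-His bromodomain construct (1040-1161) measured by AlphaScreen proximity, beads at 7.5 μg/ml final, read 60 min after addition. Protein, peptide and compound first incubated 1 h at room temperature, pH 7.5 HEPES buffer; IC50 by four-parameter logistic fit.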

pIC50: −log10 of the molar value.

On to `Cc1noc(C)c1-c1cnc2c(c1)c(-c1ccc(C(N)=O)cc1)cn2C(c1ccccn1)C1CCCC1` (stereo not shown) [P-0020, 4-(1-(cyclopentyl(pyridin-2-yl)methyl)-5-(3,5-dimethylisoxazol-4-yl)-1H-pyrrolo[2,3-b]pyridin-3-yl)benzamide], for which the pIC50 (as a rule, −log10 of the IC50, conventionally taken in molar units) was 5.10 to 6.00. Take `CNC(=O)c1ccc(-c2cn(C(c3ccccn3)C3CCCC3)c3ncc(-c4c(C)noc4C)cc23)cc1` (stereo not shown) [P-0021, 4-(1-(cyclopentyl(pyridin-2-yl)methyl)-5-(3,5-dimethylisoxazol-4-yl)-1H-pyrrolo[2,3-b]pyridin-3-yl)-N-methylbenzamide]: the negative-log IC50 (pIC50) is 5.10 to 6.00. As for `Cc1noc(C)c1-c1cnc2c(c1)c(-c1ccc(C#N)cc1)cn2C(c1ccccn1)C1CCCC1` (stereo not shown) [P-0022, 4-(1-(cyclopentyl(pyridin-2-yl)methyl)-5-(3,5-dimethylisoxazol-4-yl)-1H-pyrrolo[2,3-b]pyridin-3-yl)benzonitrile], the pIC50 was 3.00 to 5.10. With `Cc1noc(C)c1-c1cnc2c(c1)c(-c1ccc3c(c1)CNC3=O)cn2C(c1ccccn1)C1CCCC1` (stereo not shown) [P-0023, 5-(1-(cyclopentyl(pyridin-2-yl)methyl)-5-(3,5-dimethylisoxazol-4-yl)-1H-pyrrolo[2,3-b]pyridin-3-yl)isoindolin-1-one], the pIC50 was 5.10 to 6.00. As for `Cc1noc(C)c1-c1cnc2c(c1)c(-c1ccc(-c3nn[nH]n3)cc1)cn2C(c1ccccn1)C1CCCC1` (stereo not shown) [P-0024, 4-(3-(4-(2H-tetrazol-5-yl)phenyl)-1-(cyclopentyl(pyridin-2-yl)methyl)-1H-pyrrolo[2,3-b]pyridin-5-yl)-3,5-dimethylisoxazole], the figure is 5.10 to 6.00; as for `Cc1noc(C)c1-c1cnc2c(c1)c(-c1ccc(C(=O)O)c(F)c1)cn2C(c1ccccn1)C1CCCC1` (stereo not shown) [P-0025, 4-(1-(cyclopentyl(pyridin-2-yl)methyl)-5-(3,5-dimethylisoxazol-4-yl)-1H-pyrrolo[2,3-b]pyridin-3-yl)-2-fluorobenzoic acid], 6.00 to 10.00; as for `Cc1noc(C)c1-c1cnc2c(c1)c(-c1ccc(C(=O)O)nc1)cn2C(c1ccccn1)C1CCCC1` (stereo not shown) [P-0026, 5-(1-(cyclopentyl(pyridin-2-yl)methyl)-5-(3,5-dimethylisoxazol-4-yl)-1H-pyrrolo[2,3-b]pyridin-3-yl)picolinic acid], 6.00 to 10.00.

`Cc1cc(-c2c(C(F)(F)F)n([C@@H](C)c3ccccn3)c3cc(-c4c(C)noc4C)cnc23)ccc1C(=O)O` [P-0243, (S)-4-(6-(3,5-dimethylisoxazol-4-yl)-1-(1-(pyridin-2-yl)ethyl)-2-(trifluoromethyl)-1H-pyrrolo[3,2-b]pyridin-3-yl)-2-methylbenzoic acid]: the pIC50 was 5.10 to 6.00. As to `COc1cc(-c2c(C(F)(F)F)n([C@@H](C)c3ccccn3)c3cc(-c4c(C)noc4C)cnc23)ccc1C(=O)O` [P-0244, (S)-4-(6-(3,5-dimethylisoxazol-4-yl)-1-(1-(pyridin-2-yl)ethyl)-2-(trifluoromethyl)-1H-pyrrolo[3,2-b]pyridin-3-yl)-2-methoxybenzoic acid], the negative logarithm of the IC50 (pIC50) was 5.10 to 6.00. As to `Cc1noc(C)c1-c1cnc2c(-c3cccc(C(=O)O)c3F)c(C(F)(F)F)n([C@@H](C)c3ccccn3)c2c1` [P-0245, (S)-3-(6-(3,5-dimethylisoxazol-4-yl)-1-(1-(pyridin-2-yl)ethyl)-2-(trifluoromethyl)-1H-pyrrolo[3,2-b]pyridin-3-yl)-2-fluorobenzoic acid], the pIC50 was 6.00 to 10.00.

For `Cc1noc(C)c1-c1cnc2c(-c3cccc(C(=O)O)c3C)c(C(F)(F)F)n([C@@H](C)c3ccccn3)c2c1` [P-0246, (S)-3-(6-(3,5-dimethylisoxazol-4-yl)-1-(1-(pyridin-2-yl)ethyl)-2-(trifluoromethyl)-1H-pyrrolo[3,2-b]pyridin-3-yl)-2-methylbenzoic acid], the pIC50 was 5.10 to 6.00.

With `Cc1noc(C)c1-c1cnc2c(-c3cccc(C(=O)O)c3Cl)c(C(F)(F)F)n([C@@H](C)c3ccccn3)c2c1` [P-0247, (S)-2-chloro-3-(6-(3,5-dimethylisoxazol-4-yl)-1-(1-(pyridin-2-yl)ethyl)-2-(trifluoromethyl)-1H-pyrrolo[3,2-b]pyridin-3-yl)benzoic acid], the pIC50 was 6.00 to 10.00. On to `CCOC(=O)c1cc(-c2cn(-c3ccc(F)cc3F)c3ncc(-c4c(C)noc4C)cc23)c(OCC)cc1O` [P-0248, ethyl 5-(1-(2,4-difluorophenyl)-5-(3,5-dimethylisoxazol-4-yl)-1H-pyrrolo[2,3-b]pyridin-3-yl)-4-ethoxy-2-hydroxybenzoate], for which the pIC50 was 3.00 to 5.10. Take `CCOc1cc(O)c(C(=O)O)cc1-c1cn(-c2ccc(F)cc2F)c2ncc(-c3c(C)noc3C)cc12` [P-0249, 5-(1-(2,4-difluorophenyl)-5-(3,5-dimethylisoxazol-4-yl)-1H-pyrrolo[2,3-b]pyridin-3-yl)-4-ethoxy-2-hydroxybenzoic acid]: the pIC50 is 6.00 to 10.00. `CCOc1cc(OC)c(C(=O)O)cc1-c1cn(-c2ccc(F)cc2F)c2ncc(-c3c(C)noc3C)cc12` [P-0250, 5-(1-(2,4-difluorophenyl)-5-(3,5-dimethylisoxazol-4-yl)-1H-pyrrolo[2,3-b]pyridin-3-yl)-4-ethoxy-2-methoxybenzoic acid]: the pIC50 is 6.00 to 10.00. On to `Cc1noc(C)c1-c1cnc2c(c1)c(-c1ccc(C(=O)O)cc1OC(F)(F)F)cn2-c1cnccc1F` [P-0251, 4-(5-(3,5-dimethylisoxazol-4-yl)-1-(4-fluoropyridin-3-yl)-1H-pyrrolo[2,3-b]pyridin-3-yl)-3-(trifluoromethoxy)benzoic acid], for which the pIC50 is 6.00 to 10.00. On to `Cc1noc(C)c1-c1cnc2c(c1)c(-c1ccc(C(=O)O)cc1OC(F)(F)F)cn2-c1cnccc1O` [P-0252, 4-(5-(3,5-dimethylisoxazol-4-yl)-1-(4-hydroxypyridin-3-yl)-1H-pyrrolo[2,3-b]pyridin-3-yl)-3-(trifluoromethoxy)benzoic acid], for which the negative logarithm of the IC50 (pIC50) is 6.00 to 10.00.

`Cc1noc(C)c1-c1cnc2c(c1)c(-c1ccc(C(=O)O)cc1OC(F)(F)F)cn2-c1ccncc1Cl` [P-0253, 4-(1-(3-chloropyridin-4-yl)-5-(3,5-dimethylisoxazol-4-yl)-1H-pyrrolo[2,3-b]pyridin-3-yl)-3-(trifluoromethoxy)benzoic acid]: the pIC50 was 6.00 to 10.00. `Cc1noc(C)c1-c1cnc2c(c1)c(-c1ccc(C(=O)O)cc1OC(F)(F)F)cn2-c1c(F)cccc1C#N` [P-0254, 4-(1-(2-cyano-6-fluorophenyl)-5-(3,5-dimethylisoxazol-4-yl)-1H-pyrrolo[2,3-b]pyridin-3-yl)-3-(trifluoromethoxy)benzoic acid]: the pIC50 is 6.00 to 10.00.

With `COc1cc(C(=O)O)cc(C)c1-c1cn(-c2ccccc2)c2ncc(-c3c(C)noc3C)cc12` [P-0255, 4-(5-(3,5-dimethylisoxazol-4-yl)-1-phenyl-1H-pyrrolo[2,3-b]pyridin-3-yl)-3-methoxy-5-methylbenzoic acid], the pIC50 is 6.00 to 10.00. For the molecule `Cc1noc(C)c1-c1cnc2c(-c3ccc(C(=O)O)cc3C#N)c(C(F)(F)F)n([C@@H](C)c3ccccn3)c2c1` [P-0256, (S)-3-cyano-4-(6-(3,5-dimethylisoxazol-4-yl)-1-(1-(pyridin-2-yl)ethyl)-2-(trifluoromethyl)-1H-pyrrolo[3,2-b]pyridin-3-yl)benzoic acid], the pIC50 is 6.00 to 10.00. In the case of `Cc1noc(C)c1-c1cnc2c(-c3cc(C(=O)O)ccc3Cl)c(C(F)(F)F)n([C@@H](C)c3ccccn3)c2c1` [P-0257, (S)-4-chloro-3-(6-(3,5-dimethylisoxazol-4-yl)-1-(1-(pyridin-2-yl)ethyl)-2-(trifluoromethyl)-1H-pyrrolo[3,2-b]pyridin-3-yl)benzoic acid] it was 6.00 to 10.00. As for `CCOc1cc(C(=O)O)cc(OCC)c1-n1cc(-c2cnn(CS(C)(=O)=O)c2)c2ncc(-c3c(C)noc3C)cc21` [P-0258, 4-(6-(3,5-dimethylisoxazol-4-yl)-3-(1-((methylsulfonyl)methyl)-1H-pyrazol-4-yl)-1H-pyrrolo[3,2-b]pyridin-1-yl)-3,5-diethoxybenzoic acid], the figure is 6.00 to 10.00. With `CCOc1cc(C(=O)O)cc(OCC)c1-n1cc(-c2cn(C(C)C)nc2C)c2ncc(-c3c(C)noc3C)cc21` [P-0259, 4-(6-(3,5-dimethylisoxazol-4-yl)-3-(1-isopropyl-3-methyl-1H-pyrazol-4-yl)-1H-pyrrolo[3,2-b]pyridin-1-yl)-3,5-diethoxybenzoic acid], the pIC50 was 6.00 to 10.00. As to `CCOc1cc(C(=O)O)cc(OCC)c1-n1cc(-c2cnn(CC(C)(C)O)c2)c2ncc(-c3c(C)noc3C)cc21` [P-0260, 4-(6-(3,5-dimethylisoxazol-4-yl)-3-(1-(2-hydroxy-2-methylpropyl)-1H-pyrazol-4-yl)-1H-pyrrolo[3,2-b]pyridin-1-yl)-3,5-diethoxybenzoic acid], the pIC50 is 6.00 to 10.00. As to `CCOc1cc(C(=O)O)cc(OCC)c1-n1cc(-c2cnn(C(F)F)c2)c2ncc(-c3c(C)noc3C)cc21` [P-0261, 4-(3-(1-(difluoromethyl)-1H-pyrazol-4-yl)-6-(3,5-dimethylisoxazol-4-yl)-1H-pyrrolo[3,2-b]pyridin-1-yl)-3,5-diethoxybenzoic acid], the pIC50 is 6.00 to 10.00. In the case of `CCOc1cc(C(=O)O)cc(OCC)c1-n1cc(-c2cnn(CCN(C)C)c2)c2ncc(-c3c(C)noc3C)cc21` [P-0262, 4-(3-(1-(2-(dimethylamino)ethyl)-1H-pyrazol-4-yl)-6-(3,5-dimethylisoxazol-4-yl)-1H-pyrrolo[3,2-b]pyridin-1-yl)-3,5-diethoxybenzoic acid], the pIC50 was 6.00 to 10.00. For `CCOc1cc(C(=O)O)cc(OCC)c1-n1cc(-c2cn(C)nc2C)c2ncc(-c3c(C)noc3C)cc21` [P-0263, 4-(3-(1,3-dimethyl-1H-pyrazol-4-yl)-6-(3,5-dimethylisoxazol-4-yl)-1H-pyrrolo[3,2-b]pyridin-1-yl)-3,5-diethoxybenzoic acid], the negative logarithm of the IC50 (pIC50) was 6.00 to 10.00.
